Broadly, the pIC50 is the negative decadic logarithm of the IC50, by convention in mol/L.

Structures are written as SMILES. pIC50: −log10 of the molar value.

The first assay deals with gamma secretase in CHO cells expressing APPSwe, NotchΔE and a Notch responsive luciferase reporter gene (SNC-204B8). Briefly: SNC dual cell assay for simultaneous assay of A-beta reduction and Notch signaling (Example D). As to conditions: ratio of Notch IC50/Aβ EC50 determined as described in Example D (SNC dual cell assay).
Text: In order to facilitate testing the potency of gamma-secretase inhibitors on two substrates (APP and Notch) simultaneously, a dual-assay using a CHO cell line stably expressing APPSwe, a Notch substrate lacking the ecto-domain, and a Notch responsive Luciferase reporter gene was developed. CHOSwe cells stably over-express the Swedish FAD isoform of APP, and secrete large amounts of Aβ peptide into the conditioned media from endogenous β- and γ-secretase enzyme activity. A Notch intracellular domain (NICD) responsive reporter gene, and the constitutive gamma-secretase Notch substrate, NotchΔE, were stably introduced into CHOSwe cells in a two step process. CHOSwe cells were first stably transfected to express a NICD responsive luciferase reporter gene construct (pGL2-CBF-Luc). […] Stable cell lines expressing rat NotchΔE were then identified in the second step by including a gamma-secretase inhibitor in the selection process (to suppress Notch/NICD toxicity) following transfection of the rat Notch-ΔE construct. […] This vector drives expression of a truncated rat Notch construct corresponding to the c-terminal product following ecto-domain shedding of full length rat Notch protein. The c-terminal product is a constitutive substrate for gamma-secretase cleavage, resulting in release of the cytoplasmic Notch intracellular domain (NICD) product, which translocates to the nucleus and relieves CBF repressed genes. Subsequently, pIRES-ZEDN transfected cells were re-plated at low density in the presence of test compound, and selected with three antibiotics (G418 (0.5 mg/ml)/Hygro (1 mg/ml)/Puro (2.5 mg/ml)). The antibiotic-resistant colonies (named SNC clones for the dual-assay components: APPSwe/NotchΔE/CBF) were isolated and expanded for characterization of Aβ secretion, and NICD responsive reporter gene activity (i.e. luciferase signal in the presence versus absence of test compound). […] A typical dual-assay experiment was performed as follows: Day 1, the SNC cells were plated in 96-well assay plates in inhibitor-free media. Day 2, the cells were fed with fresh media (inhibitor free) and treated with test compounds over a concentration range 0 nM to 40,000 nM (in 10× incremental dilutions) one hour after the media change. The cells were treated with compounds overnight at 37° C. […] For the Notch signaling assay, the cells were lysed and luciferase activity from the lysate was measured using the Promega kit (see below). Day 4, Aβ-ELISA part II was conducted using 3D6-biotin/AP-streptavidin antibodies.
Consider `O=S(=O)(c1ccc(C(F)(F)F)cc1)N1C2Cc3[nH]ncc3C1CC(c1csnn1)C2` (racemic) [(±)-6-(1,2,3-thiadiazol-4-yl)-10-{[4-(trifluoromethyl)phenyl]sulfonyl}-4,5,6,7,8,9-hexahydro-1H-4,8-epiminocycloocta[c]pyrazole], for which the “Selectivity Ratio (Notch IC50/Aβ ED50)” value is on record as “(^++)”.

With `O=S(=O)(c1ccc(C(F)(F)F)nc1)N1C2Cc3[nH]ncc3C1CC(c1ccc3c(c1)OCO3)C2` (racemic) [(±)-6-(1,3-benzodioxol-5-yl)-10-{[6-(trifluoromethyl)pyridin-3-yl]sulfonyl}-4,5,6,7,8,9-hexahydro-1H-4,8-epiminocycloocta[c]pyrazole], the “Selectivity Ratio (Notch IC50/Aβ ED50)” value was “(+) ((+) means a ratio from about 50 to about 99)”.

As to `O=S(=O)(c1ccc(C(F)(F)F)cc1)N1C2Cc3[nH]ncc3C1CC(c1cccc(Br)c1)C2` (racemic) [(±)-6-(3-bromophenyl)-10-{[4-(trifluoromethyl)phenyl]sulfonyl}-4,5,6,7,8,9-hexahydro-1H-4,8-epiminocycloocta[c]pyrazole], the “Selectivity Ratio (Notch IC50/Aβ ED50)” value was “(+) ((+) means a ratio from about 50 to about 99)”.

Turning to `O=S(=O)(c1ccc(C(F)(F)F)cc1)N1C2Cc3[nH]ncc3C1CC(c1cccc(-n3cccn3)c1)C2` (racemic) [(±)-6-[3-(1H-pyrazol-1-yl)phenyl]-10-{[4-(trifluoromethyl)phenyl]sulfonyl}-4,5,6,7,8,9-hexahydro-1H-4,8-epiminocycloocta[c]pyrazole], the “Selectivity Ratio (Notch IC50/Aβ ED50)” value is listed as “(+) ((+) means a ratio from about 50 to about 99)”.

For `O=S(=O)(c1ccc(C(F)(F)F)cc1)N1C2Cc3[nH]ncc3C1c1cccc(-c3cccc(C(F)(F)F)c3)c1C2` (racemic) [(±)-7-[3-(trifluoromethyl)phenyl]-12-{[4-(trifluoromethyl)phenyl]sulfonyl}-4,5,6,11-tetrahydro-3H-5,11-epiminobenzo[4,5]cycloocta[1,2-c]pyrazole], the “Selectivity Ratio (Notch IC50/Aβ ED50)” value is “(++) ((++) means a ratio from about 100 to about 149)”.

With `O=S(=O)(c1ccc(C(F)(F)F)nc1)N1C2Cc3[nH]ncc3C1c1ncc(F)cc12` (racemic) [(±)-7-fluoro-11-{[6-(trifluoromethyl)pyridin-3-yl]sulfonyl}-1,4,9,10-tetrahydro-4,9-epiminopyrazolo[3′,4′: 5,6]cyclohepta[1,2-b]pyridine], the “Selectivity Ratio (Notch IC50/Aβ ED50)” value is “(+) ((+) means a ratio from about 50 to about 99)”.

Take `Cc1noc(C2CC3Cc4[nH]ncc4C(C2)N3S(=O)(=O)c2ccc(Cl)cc2)n1` (racemic) [(±)-10-[(4-chlorophenyl)sulfonyl]-6-(3-methyl-1,2,4-oxadiazol-5-yl)-4,5,6,7,8,9-hexahydro-1H-4,8-epiminocycloocta[c]pyrazole]: the “Selectivity Ratio (Notch IC50/Aβ ED50)” value is reported as “(++++) ((++++) means a ratio of Notch IC50/Aβ EC50 (determined as described in Example D) of >200)”.

The next assay deals with T1, gamma-secretase (partially purified extract of IMR-32 cell membranes; substrate MBP-C125 Swe fusion protein, cleavage at the Aβ40 site) (Homo sapiens, UniProt P49768).
T1 construct: a partially purified extract of IMR-32 cell membranes as the gamma-secretase enzyme preparation; endogenous in cells; host or cells: IMR-32 cell membranes, partially purified extract
Briefly: Gamma-secretase APP enzyme assay (Example A). Type of assay: biochemical. As to conditions: class symbols; assay described in Example A; read-out: γAPP IC50. Put shortly:
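IMR-32 membrane extract, solubilised in BigCHAPS with brain lipid (0.53 mg/ml) in Hepes/NaCl, preincubated 30 min at 37° C with inhibitor; MBP-C125 Swe substrate then added, 2 h at 37° C, SDS-quenched. Aβ40 neo-epitope product measured by sandwich ELISA against six-point standard curve.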
For the molecule `O=S(=O)(c1ccc(C(F)(F)F)nc1)N1C2Cc3[nH]ncc3C1c1cc(Cl)ccc12` (stereo not shown) [compound 222], the pIC50 is more than 7.00.

`COC(=O)c1cccc2c1C1Cc3[nH]ncc3C2N1S(=O)(=O)c1ccc(C(F)(F)F)nc1` (stereo not shown) [compound 226]: the pIC50 was more than 7.00.

On to `COC(=O)c1cccc2c1C1Cc3[nH]ncc3C2N1S(=O)(=O)c1ccc(C(F)(F)F)nc1` (stereo not shown) [compound 227], for which the pIC50 was 6.30 to 7.00.

With `O=S(=O)(c1ccc(C(F)(F)F)nc1)N1C2Cc3[nH]ncc3C1c1cccc(Cl)c12` (stereo not shown) [compound 228], the pIC50 is more than 7.00.

With `O=S(=O)(c1ccc(C(F)(F)F)nc1)N1C2Cc3[nH]ncc3C1c1cccc(Cl)c12` (stereo not shown) [compound 229], the pIC50 is 6.30 to 7.00.

For `Cc1noc(-c2cccc3c2C2Cc4[nH]ncc4C3N2S(=O)(=O)c2ccc(C(F)(F)F)nc2)n1` (stereo not shown) [compound 234], the pIC50 was more than 7.00.

Regarding `Cc1noc(-c2cccc3c2C2Cc4[nH]ncc4C3N2S(=O)(=O)c2ccc(C(F)(F)F)nc2)n1` (stereo not shown) [compound 235], the pIC50 was 6.30 to 7.00.

As to `O=C1c2[nH]ncc2C2c3c(F)cccc3C1N2S(=O)(=O)c1ccc(Cl)cc1` (stereo not shown) [compound 236], the pIC50 was more than 7.00.

With `O=S(=O)(c1ccc(C(F)(F)F)nc1)N1C2c3c[nH]nc3[C@H](O)C1c1cccc(F)c12` (stereo partly shown) [compound 237], the pIC50 is less than 6.00.

For the molecule `O=S(=O)(c1ccc(C(F)(F)F)nc1)N1C2c3cn[nH]c3[C@@H](O)C1c1cccc(F)c12` (stereo partly shown) [compound 238], the pIC50 is more than 7.00.

In the case of `O=S(=O)(c1ccc(C(F)(F)F)nc1)N1C2c3c[nH]nc3[C@H](O)C1c1c(F)cccc12` (stereo partly shown) [compound 239], the pIC50 is less than 6.00.

For `O=S(=O)(c1ccc(C(F)(F)F)nc1)N1C2c3c[nH]nc3[C@@H](O)C1c1c(F)cccc12` (stereo partly shown) [compound 240], the pIC50 was 6.30 to 7.00.

`O=S(=O)(c1ccc(C(F)(F)F)nc1)N1C2Cc3[nH]ncc3C1c1cc(-c3ccc(F)cc3)ccc12` (stereo not shown) [compound 241]: the pIC50 was more than 7.00.

Turning to `O=C1c2[nH]ncc2C2c3c(F)cccc3C1N2S(=O)(=O)c1ccc(Cl)cc1` (stereo not shown) [compound 242], the pIC50 is more than 7.00.

Turning to `O=C1c2[nH]ncc2C2c3c(F)cccc3C1N2S(=O)(=O)c1ccc(Cl)cc1` (stereo not shown) [compound 243], the pIC50 is 6.30 to 7.00.

Take `O=S(=O)(c1ccc(C(F)(F)F)nc1)N1C2Cc3[nH]ncc3C1c1cc(Br)ccc12` (stereo not shown) [compound 250]: the pIC50 is more than 7.00.

In the case of `O=S(=O)(c1ccc(C(F)(F)F)nc1)N1C2Cc3[nH]ncc3C1c1cc(Br)ccc12` (stereo not shown) [compound 251], the pIC50 is 6.30 to 7.00.

Turning to `O=S(=O)(c1ccc(C(F)(F)F)nc1)N1C2Cc3n[nH]cc3C1c1cccc(CO)c12` (stereo not shown) [compound 252], the pIC50 is more than 7.00.

On to `O=S(=O)(c1ccc(C(F)(F)F)nc1)N1C2Cc3n[nH]cc3C1c1nc(-c3ccc(F)cc3)ccc12` (stereo not shown) [compound 254], for which the negative logarithm of the IC50 (pIC50) was 6.30 to 7.00.

As for `O=S(=O)(c1ccc(C(F)(F)F)nc1)N1C2Cc3[nH]ncc3C1c1nc(C3CC3)ccc12` (stereo not shown) [compound 255], the pIC50 was 6.30 to 7.00.

As to `O=S(=O)(c1ccc(C(F)(F)F)nc1)N1C2Cc3[nH]ncc3C1c1nc(C3CC3)ccc12` (stereo not shown) [compound 256], the pIC50 was less than 6.00.

In the case of `CC#Cc1ccc2c(c1)[C@@H]1c3cn[nH]c3C[C@@H]2N1S(=O)(=O)c1ccc(C(F)(F)F)nc1` [compound 261], the pIC50 is 6.30 to 7.00.

As to `O=S(=O)(c1ccc(C(F)(F)F)nc1)N1C2/C(=N/O)c3[nH]ncc3C1c1cccc(Cl)c12` (stereo not shown) [compound 265], the pIC50 was more than 7.00.

For the molecule `O=S(=O)(c1ccc(C(F)(F)F)nc1)N1[C@H]2c3cn[nH]c3[C@H](F)[C@@H]1c1cccc(F)c12` [compound 267], the pIC50 was more than 7.00.

With `O=S(=O)(c1ccc(C(F)(F)F)nc1)N1[C@@H]2c3cn[nH]c3[C@H](F)[C@H]1c1cccc(F)c12` [compound 268], the pIC50 is less than 6.00.

In the case of `CO/N=C1\c2[nH]ncc2C2c3cccc(Cl)c3C1N2S(=O)(=O)c1ccc(C(F)(F)F)nc1` (stereo not shown) [compound 269], the pIC50 was more than 7.00.

On to `C=C1c2[nH]ncc2C2c3cccc(Cl)c3C1N2S(=O)(=O)c1ccc(C(F)(F)F)nc1` (stereo not shown) [compound 272], for which the pIC50 was more than 7.00.

Take `CC12C(=O)c3[nH]ncc3C(c3ccccc31)N2S(=O)(=O)c1ccc(C(F)(F)F)nc1` (stereo not shown) [compound 275]: the pIC50 is more than 7.00.

For the molecule `CC12C(=O)c3[nH]ncc3C(c3ccccc31)N2S(=O)(=O)c1ccc(C(F)(F)F)cc1` (stereo not shown) [compound 277], the pIC50 was more than 7.00.

The same assay, now with this note: numeric bounds given instead of class symbols; assay described in Example A; read-out: γAPP IC50.
Consider `CC12C(=O)c3[nH]ncc3C(c3ccccc31)N2S(=O)(=O)c1ccc(C(F)(F)F)nc1` (stereo not shown) [compound 276], for which the pIC50 was less than 7.52.

Values taken from patent US8283358B2, “N-sulfonamido polycyclic pyrazolyl compounds” (Elan Pharmaceuticals, Inc., priority 2008, dated 2012).
